The source of these data is patent US20160215305A1, “Process of Fermenting A Lignocellulosic Biomass” (priority 2015, published 2016).

For this assay, the system named is S. cerevisiae. Nature of the assay: Batch fermentation of amino acid detoxified loblolly pine hydrolysates by Baker yeast. It counts as cell-based, Saccharomyces cerevisiae. The settings on record: pH 6.0, 60° C.; for CEtOH, ethanol final concentration at 48 h / CHMF, percentage of HMF consumed at 48 h / QEtOH, volumetric ethanol productivity in the first 6 h / RG, glucose consumption rate in the first 6 h / RM, mannose consumption rate in the first 6 h / YEtOH, ethanol yield from total glucose and mannose at 48 h: hydrolysates detoxified with amino acid 0.2% w/v, 2 hours. The source says: Loblolly pine (Pinus taeda) wood chips (1.0×1.0 cm, L×W) were collected by Forest Products Laboratory at Auburn University, located in Auburn, Ala. Dilute acid pretreatment was used to produce biomass hydrolysates in a 4.0 L Parr batch reactor (Parr Instrument Co., Moline, Ill.) as previously described (Lai, C. H., Tu, M. B., Li, M., Yu, S. Y. 2014. Remarkable solvent and extractable lignin effects on enzymatic digestibility of organosolv pretreated hardwood. Bioresource Technology, 156, 92-98). Briefly, wood chips (400 grams, dry weight) were soaked in 1% (w/w) sulfuric acid overnight (7:1 liquor/solid ratio) prior to the pretreatment, and then loaded into a reactor and treated at 170° C. for 60 minutes.
To achieve higher ethanol titer in fermentation, loblolly pine hydrolysates were concentrated to approximately one-third of its original volume using a rotary evaporator (IKA RV10 basic) at 40° C. and 60 rotations per minute (rpm). The hydrolysates were first adjusted to pH 4.0 before evaporation. After the concentration, the sugar contents of the hydrolysates were analyzed by HPLC.
[…] The detoxification experiments were performed in a 250 mL flask and placed in a temperature-controlled water batch.
Baker yeast (Fleischmann's), S. cerevisiae, was used for all the fermentation experiments in this study. The yeast was maintained on YDP medium containing (g/L): 20 glucose, 20 peptone, 10 yeast extract and 20 agar. Isolated colony was grown in YDP liquid medium overnight and harvested as fermentation inoculum. The yeast concentration was measured using an UV-vis spectrophotometer. Inoculum of 2.0 g/L was used for all fermentation experiments.
Batch fermentation was carried out in 125 mL serum bottles containing 50 mL broths (untreated or detoxified hydrolysates, untreated or detoxified cinnamaldehyde sugar solution) without any additional nutrient supplement. All the fermentation broths were adjusted to pH 6 with NaOH or H2SO4 and sterilized by passing 0.2 μm sterile filters. After inoculation, the serum bottle was sealed with rubber stopper and aluminum seal, and equipped with cannulas for CO2 release. All fermentation experiments were incubated at 30° C., spun at 150 rpm in a shaker (E24, New Brunswick Scientific). Aliquots of samples were withdrawn at 0, 1, 3, 6, 9, 12, 24, 36 and 48 hours for the time course analysis of both starting material and products. Fermentation was carried out in duplicate. The volumetric ethanol productivity and initial consumption rate of glucose (RG) and mannose (RM) was calculated based on the sugar consumed in the first 6 h of fermentation as described previously (Cao, D. X., Tu, M. B., Xie, R., Li, J., Wu, Y. N., Adhikari, S. 2014. Inhibitory Activity of Carbonyl Compounds on Alcoholic Fermentation by Saccharomyces cerevisiae. Journal of Agricultural and Food Chemistry, 62(4), 918-926).
Ethanol, acetic acid, levulinic acid, formic acid, furfural and HMF were analyzed using an Aminex HPX-87H column (300×7.8 mm) with a refractive index detector. The elution conditions were column temperature of 45° C. and flow rate of 0.6 ml/min with 5.0 mM H2SO4 as the mobile phase in a 60 min isocratic run.

SMILES strings stand for the structures. Values joined by “and” are separate entries in the source; they are usually repeats but may differ in a detail not shown here. Equal entries are not always repeated.

Consider `C[C@@H](O)[C@H](N)C(=O)O` [Threonine, threonine], for which the “CEtOH, ethanol final concentration at 48 h” value (from here on “CEtOH … at 48 h”) was found to be 3.96 ± 0.13 g/L; the “CHMF, percentage of HMF consumed at 48 h” value was 16.19 ± 0.87%; the “QEtOH, volumetric ethanol productivity in the first 6 h” value (from here on “QEtOH, volumetric ethanol productivity”) was found to be 0.41 ± 0.01 g/L/h; the “RG, glucose consumption rate in the first 6 h” value (“RG, glucose consumption rate” for short) was found to be 0.36 ± 0.02 g/L/h. Further, the “RM, mannose consumption rate in the first 6 h” value (“RM, mannose consumption rate” for short) was determined as 0.67 ± 0.03 g/L/h; the “YEtOH, ethanol yield from total glucose and mannose at 48 h” value (“YEtOH, ethanol yield” for short) was determined as 0.07 ± 0.00 g/g.

With `NC(=O)C[C@H](N)C(=O)O` [Asparagine, asparagine], the “CEtOH … at 48 h” value came to 11.18 ± 0.15 g/L; the “QEtOH, volumetric ethanol productivity” value is given as 0.58 ± 0.01 g/L/h; the “RG, glucose consumption rate” value came out at 0.65 ± 0.01 g/L/h; the “RM, mannose consumption rate” value turned out to be 0.87 ± 0.10 g/L/h. Besides, where the note is “listed as asparagine”, the “CEtOH … at 48 h” value turned out to be 11.18 g/L; the “RG, glucose consumption rate” value turned out to be 0.65 g/L/h; the “RM, mannose consumption rate” value worked out at 0.87 g/L/h.

Turning to `N=C(N)NCCC[C@H](N)C(=O)O` [Arginine, arginine], the “CEtOH … at 48 h” value stood at 2.62 ± 0.03 g/L; the “CHMF, percentage of HMF consumed at 48 h” value was found to be 12.69 ± 0.27%; the “QEtOH, volumetric ethanol productivity” value is listed as 0.34 ± 0.01 g/L/h; the “RG, glucose consumption rate” value amounted to 0.29 ± 0.02 g/L/h. The “RM, mannose consumption rate” value is on record as 0.59 ± 0.07 g/L/h; the “YEtOH, ethanol yield” value stood at 0.05 ± 0.00 g/g.

`N[C@@H](CCC(=O)O)C(=O)O` [Glutamate, glutamate]: the “CEtOH … at 48 h” value is 3.63 ± 0.23 g/L; the “CHMF, percentage of HMF consumed at 48 h” value is 15.40 ± 0.72%; the “QEtOH, volumetric ethanol productivity” value turned out to be 0.41 ± 0.01 g/L/h; the “RG, glucose consumption rate” value is 0.34 ± 0.02 g/L/h. Besides, the “RM, mannose consumption rate” value worked out at 0.56 ± 0.03 g/L/h; the “YEtOH, ethanol yield” value is on record as 0.07 ± 0.00 g/g.

Take `C[C@H](N)C(=O)O` [Alanine, alanine]: the “CEtOH … at 48 h” value is listed as 2.14 ± 0.01 g/L; the “CHMF, percentage of HMF consumed at 48 h” value amounted to 11.03 ± 1.64%; the “QEtOH, volumetric ethanol productivity” value is reported as 0.28 ± 0.00 g/L/h; the “RG, glucose consumption rate” value is reported as 0.21 ± 0.02 g/L/h. Also, the “RM, mannose consumption rate” value stood at 0.44 ± 0.07 g/L/h; the “YEtOH, ethanol yield” value was found to be 0.04 ± 0.00 g/g.

Take `CC(C)C[C@H](N)C(=O)O` [Leucine, leucine]: the “CEtOH … at 48 h” value is on record as 2.83 ± 0.19 g/L; the “CHMF, percentage of HMF consumed at 48 h” value is 12.84 ± 1.32%; the “QEtOH, volumetric ethanol productivity” value was determined as 0.34 ± 0.01 g/L/h; the “RG, glucose consumption rate” value came to 0.27 ± 0.04 g/L/h. Besides, the “RM, mannose consumption rate” value is on record as 0.64 ± 0.12 g/L/h; the “YEtOH, ethanol yield” value is 0.05 ± 0.00 g/g.

On to `N[C@@H](Cc1c[nH]cn1)C(=O)O` [Histidine, histidine], for which the “CEtOH … at 48 h” value was 23.07 ± 0.35 g/L; the “QEtOH, volumetric ethanol productivity” value was determined as 0.78 ± 0.00 g/L/h; the “RG, glucose consumption rate” value was 0.94 ± 0.00 g/L/h; the “RM, mannose consumption rate” value came out at 1.02 ± 0.01 g/L/h. Also, the “YEtOH, ethanol yield” value was determined as 0.42 ± 0.01 g/g. For the setting “listed as histidine”, the “CEtOH … at 48 h” value amounted to 23.07 g/L; the “RG, glucose consumption rate” value came to 0.94 g/L/h; the “RM, mannose consumption rate” value is reported as 1.02 g/L/h; the “YEtOH, ethanol yield” value turned out to be 0.42 g/g. The “sugar consumption rate (glucose and mannose) less than those from cysteine detoxification” value (2 hours detoxification) was 50%.

On to `N[C@@H](Cc1ccc(O)cc1)C(=O)O` [Tyrosine, tyrosine], for which the “CEtOH … at 48 h” value is given as 2.16 ± 0.25 g/L; the “CHMF, percentage of HMF consumed at 48 h” value came out at 12.17 ± 0.92%; the “QEtOH, volumetric ethanol productivity” value amounted to 0.30 ± 0.02 g/L/h; the “RG, glucose consumption rate” value was determined as 0.25 ± 0.02 g/L/h. In addition, the “RM, mannose consumption rate” value stood at 0.59 ± 0.05 g/L/h; the “YEtOH, ethanol yield” value came to 0.04 ± 0.00 g/g.

As for `CC[C@H](C)[C@H](N)C(=O)O` [Isoleucine, isoleucine], the “CEtOH … at 48 h” value came out at 5.03 ± 1.46 g/L; the “CHMF, percentage of HMF consumed at 48 h” value is 17.36 ± 3.50%; the “QEtOH, volumetric ethanol productivity” value was found to be 0.44 ± 0.08 g/L/h; the “RG, glucose consumption rate” value is listed as 0.37 ± 0.02 g/L/h. The “RM, mannose consumption rate” value was 0.66 ± 0.06 g/L/h; the “YEtOH, ethanol yield” value is 0.09 ± 0.03 g/g.

In the case of `O=C(O)[C@@H]1CCCN1` [Proline, proline], the “CEtOH … at 48 h” value is recorded as 3.12 ± 0.13 g/L; the “CHMF, percentage of HMF consumed at 48 h” value is listed as 13.35 ± 1.05%; the “QEtOH, volumetric ethanol productivity” value amounted to 0.33 ± 0.00 g/L/h; the “RG, glucose consumption rate” value came out at 0.27 ± 0.05 g/L/h. Besides, the “RM, mannose consumption rate” value was 0.67 ± 0.18 g/L/h; the “YEtOH, ethanol yield” value came to 0.06 ± 0.00 g/g.

On to `NCCCC[C@H](N)C(=O)O` [Lysine, lysine], for which the “CEtOH … at 48 h” value is 14.40 ± 0.57 g/L; the “QEtOH, volumetric ethanol productivity” value came out at 0.72 ± 0.01 g/L/h; the “RG, glucose consumption rate” value is on record as 0.80 ± 0.06 g/L/h; the “RM, mannose consumption rate” value was determined as 1.09 ± 0.13 g/L/h. Besides, under “listed as lysine”, the “CEtOH … at 48 h” value is 14.40 g/L; the “RG, glucose consumption rate” value was determined as 0.80 g/L/h; the “RM, mannose consumption rate” value turned out to be 1.09 g/L/h.

For `N[C@@H](Cc1c[nH]c2ccccc12)C(=O)O` [Tryptophan, tryptophan], the “CEtOH … at 48 h” value was 11.59 ± 0.25 g/L; the “QEtOH, volumetric ethanol productivity” value came to 0.63 ± 0.01 g/L/h; the “RG, glucose consumption rate” value is 0.69 g/L/h and 0.69 ± 0.00 g/L/h; the “RM, mannose consumption rate” value is 0.89 g/L/h and 0.89 ± 0.04 g/L/h. Moreover, the “CEtOH … at 48 h” value (listed as tryptophan) was found to be 11.59 g/L.

Take `CSCC[C@H](N)C(=O)O` [Methionine, methionine]: the “CEtOH … at 48 h” value worked out at 3.11 ± 0.02 g/L; the “CHMF, percentage of HMF consumed at 48 h” value is listed as 12.78 ± 0.10%; the “QEtOH, volumetric ethanol productivity” value is 0.31 ± 0.00 g/L/h; the “RG, glucose consumption rate” value worked out at 0.27 ± 0.01 g/L/h. The “RM, mannose consumption rate” value is given as 0.63 ± 0.02 g/L/h; the “YEtOH, ethanol yield” value came out at 0.06 ± 0.00 g/g.

Turning to `CC(C)[C@H](N)C(=O)O` [Valine, valine], the “CEtOH … at 48 h” value turned out to be 2.69 ± 0.18 g/L; the “CHMF, percentage of HMF consumed at 48 h” value was 12.66 ± 1.50%; the “QEtOH, volumetric ethanol productivity” value stood at 0.32 ± 0.00 g/L/h; the “RG, glucose consumption rate” value came out at 0.25 ± 0.00 g/L/h. Moreover, the “RM, mannose consumption rate” value turned out to be 0.49 ± 0.03 g/L/h; the “YEtOH, ethanol yield” value was determined as 0.05 ± 0.00 g/g.

For `N[C@@H](CC(=O)O)C(=O)O` [Aspartate, aspartate], the “CEtOH … at 48 h” value is reported as 3.86 ± 0.18 g/L; the “CHMF, percentage of HMF consumed at 48 h” value is on record as 16.27 ± 0.30%; the “QEtOH, volumetric ethanol productivity” value is recorded as 0.47 ± 0.00 g/L/h; the “RG, glucose consumption rate” value was 0.43 ± 0.02 g/L/h. For the same compound, the “RM, mannose consumption rate” value came to 0.90 ± 0.01 g/L/h; the “YEtOH, ethanol yield” value is on record as 0.07 ± 0.00 g/g.
